{"source": "ChEMBL document CHEMBL1151350", "about": "“Uterotonic effect of Evodia rutaecarpa alkaloids” (1980)", "key": {"Rattus norvegicus [1]": {"organism": "Rattus norvegicus", "experiment": "In virto uterotonic activity in Sprague-Dawley rat uterus assessed as contraction at 20 ug/ml", "format": "functional, tissue-based"}, "[2]": {"experiment": "In virto uterotonic activity in Sprague-Dawley rat uterus assessed as contraction", "format": "functional"}, "[3]": {"experiment": "In virto uterotonic activity in Sprague-Dawley rat uterus expressed as g-force unit", "format": "functional"}, "Rattus norvegicus [4]": {"system": "Rattus norvegicus", "experiment": "In vivo uterotonic activity in iv dosed estrous Sprague-Dawley rat uterus assessed as contraction by sponge tipped catheter method", "format": "functional"}, "Rattus norvegicus [5]": {"system": "Rattus norvegicus", "experiment": "In vivo uterotonic activity in estrous Sprague-Dawley rat uterus assessed as maximum peak contraction at 2400 ug/kg, iv within 20 mins by sponge tipped catheter method", "format": "functional"}, "Rattus norvegicus [6]": {"organism": "Rattus norvegicus", "experiment": "In virto uterotonic activity in Sprague-Dawley rat uterus assessed as contraction in presence of methysergide", "format": "functional, tissue-based"}, "Rattus norvegicus [7]": {"organism": "Rattus norvegicus", "experiment": "In virto uterotonic activity in Sprague-Dawley rat uterus assessed as contraction in presence of atropine", "format": "functional, tissue-based"}}, "note": "Calls of active or inactive are those of the source. No cut-off for these calls is given here.", "data": [{"smiles": "CN1c2ccccc2C(=O)N2CCc3c([nH]c4ccccc34)[C@@H]21", "values": [{"measurement": "Activity", "setting": "Rattus norvegicus [1]", "value": "inactive"}]}, {"smiles": "C[n+]1c2n(c(=O)c3ccccc31)CCc1c-2[nH]c2ccccc12.[Cl-]", "note": "[DEHYDROEVODIAMINE CHLORIDE]", "values": [{"measurement": "Activity", "setting": "[2]", "value": 0.6, "unit": "µg/mL"}, {"measurement": "Activity", "setting": "[3]", "value": 2.15, "unit": "g"}, {"measurement": "Activity", "setting": "Rattus norvegicus [4]", "value": "Dose-dependent effect"}, {"measurement": "Activity", "setting": "Rattus norvegicus [4]; record 2", "value": 80, "unit": "µg/kg"}, {"measurement": "Activity", "setting": "Rattus norvegicus [5]", "value": 25.3, "unit": "mmHg"}, {"measurement": "Activity", "setting": "Rattus norvegicus [6]", "value": "Active"}, {"measurement": "Activity", "setting": "Rattus norvegicus [7]", "value": "Active"}]}, {"smiles": "Cl.O=c1c2ccccc2nc2n1CCc1c-2[nH]c2ccccc12", "note": "[RUTAECARPINE HYDROCHLORIDE]", "values": [{"measurement": "Activity", "setting": "[2]", "value": "<1", "unit": "µg/mL"}, {"measurement": "Activity", "setting": "[3]", "value": 0.72, "unit": "g"}]}]}
